Laboratory results published in patent publication US20090054403A1, “Treatment of Post-Traumatic Stress Disorder” (priority 2007, published 2009).
Several values for one entry are separate records, joined by “and”; a condition that tells them apart may be missing. Equal entries are not always repeated. Where two headings read alike, the source gives them in different places.

What was measured:
[1] = target: T1, human dopamine-β-hydroxylase (Homo sapiens, UniProt P09172); assay: Human DBH activity, conversion of tyramine to octopamine (HPLC); type: biochemical; conditions: for IC50: 0.1 mM tyramine, 4 mM ascorbate, pH 5.2
T1 construct: Human secretory DBH was purified from the culture medium of the neuroblastoma cell line SK-N-SH; endogenous in cells; host or cells: SK-N-SH neuroblastoma cells; secreted enzyme purified in house from the culture medium on lentil lectin-sepharose
T1 sequence (P09172 40-617 limits assumed): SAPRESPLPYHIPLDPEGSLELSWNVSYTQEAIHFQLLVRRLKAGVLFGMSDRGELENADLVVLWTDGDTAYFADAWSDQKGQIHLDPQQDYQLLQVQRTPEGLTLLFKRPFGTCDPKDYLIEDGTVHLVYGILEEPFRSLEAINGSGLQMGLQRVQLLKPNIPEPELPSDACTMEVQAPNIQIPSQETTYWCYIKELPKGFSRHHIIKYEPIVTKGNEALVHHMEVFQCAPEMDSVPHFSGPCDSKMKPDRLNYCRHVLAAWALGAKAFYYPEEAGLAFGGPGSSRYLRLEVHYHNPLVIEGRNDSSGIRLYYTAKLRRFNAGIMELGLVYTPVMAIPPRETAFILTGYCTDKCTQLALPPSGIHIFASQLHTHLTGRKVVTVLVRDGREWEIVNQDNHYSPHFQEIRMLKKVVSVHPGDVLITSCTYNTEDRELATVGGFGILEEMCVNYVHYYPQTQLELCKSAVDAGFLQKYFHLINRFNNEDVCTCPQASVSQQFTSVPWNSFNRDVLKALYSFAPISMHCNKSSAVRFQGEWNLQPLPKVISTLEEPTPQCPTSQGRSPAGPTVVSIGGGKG
Protocol: (§1) Bovine and human dopamine-β-hydroxylase activity was assayed by measuring the conversion of tyramine to octopamine. Bovine adrenal dopamine-β-hydroxylase was obtained from Sigma Chemicals (St Louis, Mo., USA) whereas human dopamine-β-hydroxylase was purified from the culture medium of the neuroblastoma cell line SK-N-SH. The assay was performed at pH 5.2 and 32° C. in a medium containing 0.125 M NaAc, 10 mM fumarate, 0.5-2 μM CuSO4, 0.1 mg.ml^−1 catalase, 0.1 mM tyramine and 4 mM ascorbate. In a typical assay, 0.5-1 milliunits of enzyme were added to the reaction mixture and, subsequently, a substrate mixture containing catalase, tyramine and ascorbate was added to initiate the reaction (final volume of 200 μl). Samples were incubated with or without the appropriate concentration of nepicastat (S-enantiomer) or (R)-5-Aminomethyl-1-(5,7-difluoro-1,2,3,4-tetrahydronaphth-2-yl)-2,3-dihydro-2-thioxo-1H-imidazole hydrochloride (R-enantiomer) at 37° C. for 30-40 minutes. The reaction was quenched by the stop solution containing 25 mM EDTA and 240 μM 3-hydroxytyramine (internal standard). The samples were analysed for octopamine by reverse phase high pressure liquid chromatography (HPLC) using ultraviolet-detection at […]. The HPLC chromatography run was carried out at the flow rate of 1 ml.min^−1 using a LiChroCART 125-4 RP-18 column and isocratic elution with 10 mM acidic acid, 10 mM 1-heptane sulfonic acid, 12 mM tetrabutyl ammonium phosphate and 10% methanol. The remaining percent activity was calculated based on controls, corrected using internal standards and fitted to a non-linear four-parameter concentration-response curve.
(§2) In vitro assay of DBH activity. DBH activity was assayed by measuring the conversion of tyramine to octopamine. Bovine DBH from adrenal glands was obtained from Sigma Chemical Co (St Louis, Mo.). Human secretory DBH was purified from the culture medium of the neuroblastoma cell line SK-N-SH. The assay was performed at pH 5.2 and 32° C. in 0.125 M NaOAc, 10 mM fumarate, 0.5-2 μM CUSO4, 0.1 mg/mL catalase, 0.1 mM tyramine and 4 mM ascorbate. In a typical assay, 0.5-1 milliunits of enzyme were added to the reaction mixture and then a substrate mixture containing catalase, tyramine and ascorbate was added to initiate the reaction (final volume of 200 μL). Samples were incubated with or without the appropriate concentration of the inhibitor at 37° C. for 30-40 min. The reaction was quenched by the stop solution containing 25 mM EDTA and 240 μM 3-hydroxytyramine (internal standard). The samples were analysed for octopamine by reverse phase HPLC using UV detection at […]. The remaining percent activity was calculated based on controls (without inhibitor), corrected using internal standards and fitted to a non-linear 4-parameter concentration-response curve to obtain IC50 values.
Bovine DBH from adrenal glands was obtained from Sigma Chemicals (St. Louis, Mo.). Human secretory DBH was purified from the culture medium of the neuroblastoma cell line SK-N-SH and was used to obtain the inhibition data. A lentil lectin-sepharose column containing 25 ml gel was prepared and equilibrated with 50 mM KH2PO4, pH 6.5, 0.5 M NaCl. The column was eluted with 35 ml of 10% methyl α, D-mannopyranoside in 50 mM KH2PO4, pH 6.5, 0.5 M NaCl at 0.5 ml/min. Fraction containing most enzymatic activities were pooled and concentrated with an Amicon stirred cell using a YM30 membrane. Methyl α, D-mannopyranoside was removed by buffer exchange with in 50 mM KH2PO4, pH 6.5, 0.1 M NaCl. The concentrated enzyme solution was aliquoted and stored at −25° C. An HPLC assay was used to measure DBH activity using tyramine and ascorbate as substrates. […]

[2] = target: T2, bovine dopamine-β-hydroxylase (Bos taurus, UniProt P15101); assay: Bovine DBH activity, conversion of tyramine to octopamine (HPLC); type: biochemical; conditions: for IC50: 0.1 mM tyramine, 4 mM ascorbate, pH 5.2
T2 construct: Bovine DBH from adrenal glands was obtained from Sigma Chemicals; purchased Sigma Chemicals (St Louis, Mo.); host or cells: bovine adrenal glands
T2 sequence (P15101 1-610): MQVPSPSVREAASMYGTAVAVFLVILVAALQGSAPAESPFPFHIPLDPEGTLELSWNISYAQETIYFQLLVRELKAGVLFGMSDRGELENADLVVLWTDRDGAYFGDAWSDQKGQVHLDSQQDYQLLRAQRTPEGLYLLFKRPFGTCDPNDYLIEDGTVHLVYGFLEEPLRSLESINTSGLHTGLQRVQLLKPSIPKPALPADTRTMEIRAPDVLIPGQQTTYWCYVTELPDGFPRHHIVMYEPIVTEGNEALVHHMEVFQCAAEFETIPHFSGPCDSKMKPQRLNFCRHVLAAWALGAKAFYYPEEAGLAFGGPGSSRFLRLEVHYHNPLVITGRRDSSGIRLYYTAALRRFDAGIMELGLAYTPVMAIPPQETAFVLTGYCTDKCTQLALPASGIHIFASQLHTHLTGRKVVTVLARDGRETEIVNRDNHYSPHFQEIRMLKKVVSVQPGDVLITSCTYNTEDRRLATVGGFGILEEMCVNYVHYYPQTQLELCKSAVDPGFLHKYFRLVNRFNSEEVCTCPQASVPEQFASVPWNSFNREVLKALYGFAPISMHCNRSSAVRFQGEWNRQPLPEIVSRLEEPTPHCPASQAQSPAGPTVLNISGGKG
Protocol: as §1, §2
Bovine DBH from adrenal glands was obtained from Sigma Chemicals (St. Louis, Mo.). Human secretory DBH was purified from the culture medium of the neuroblastoma cell line SK-N-SH and was used to obtain the inhibition data. A lentil lectin-sepharose column containing 25 ml gel was prepared and equilibrated with 50 mM KH2PO4, pH 6.5, 0.5 M NaCl. The column was eluted with 35 ml of 10% methyl α, D-mannopyranoside in 50 mM KH2PO4, pH 6.5, 0.5 M NaCl at 0.5 ml/min. Fraction containing most enzymatic activities were pooled and concentrated with an Amicon stirred cell using a YM30 membrane. […]

[3] = bovine and human DBH taken together

Cl.NCc1c[nH]c(=S)n1[C@H]1CCc2c(F)cc(F)cc2C1 [nepicastat, (S)-5-Aminomethyl-1-(5,7-difluoro-1,2,3,4-tetrahydronaphth-2-yl)-2,3-dihydro-2-thioxo-1H-imidazole hydrochloride]
potency relative to SKF 102698 [1]: 9 fold | potency relative to the R enantiomer [1]: 2 fold | IC50 [1]: 9 nM | potency relative to SKF 102698 [1, 3]: 8-9 fold | potency relative to the R enantiomer [1, 3]: 2-3 fold | selectivity for dopamine-β-hydroxylase ([1]; vs the other enzymes studied): > 1000 fold | potency relative to SKF 102698 [2]: 8 fold | potency relative to the R enantiomer [2]: 3 fold | IC50 [2]: 8.5 ± 0.8 nM

Fc1cc(F)cc(Cn2cc[nH]c2=S)c1 [SKF 102698, reference compound]
IC50 [1]: 85 ± 3.7 nM | IC50 [2]: 67 ± 4.2 nM

Cl.NCc1c[nH]c(=S)n1[C@@H]1CCc2c(F)cc(F)cc2C1 [R-enantiomer, (R)-5-Aminomethyl-1-(5,7-difluoro-1,2,3,4-tetrahydronaphth-2-yl)-2,3-dihydro-2-thioxo-1H-imidazole hydrochloride]
IC50 [1]: 18.3 nM and 18 nM | IC50 [2]: 25.1 ± 0.6 nM
